Test [1] has as its target hGYS2 enzyme (recombinant hGYS2/GN1 protein) (Homo sapiens (Human), UniProt P54840). The experiment in a line: GYS2 coupled enzyme assay (PK/LDH). In kind it is biochemical. The note with it: geometric mean of at least 2 assay runs on separate days, read-out: Avg_IC50. The essentials:
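hGYS2/GN1 200 nM; UDP-Glc 2 mM; glycogen 0.2%; G6P 2 mM; PEP 2 mM, NADH 0.6 mM, PK/LDH 20 U/mL. 50 mM Tris pH 7.5, MgCl2, KCl, BSA, TCEP, 2.5% DMSO. Kinetic A340, 10 min. IC50 = geomean of ≥2 runs.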

In test [2] the target is hGYS1 enzyme (recombinant hGYS1/GN1 protein) (Homo sapiens (Human), UniProt P13807). As to the kind of experiment: GYS1 coupled enzyme assay (PK/LDH). Type of test: biochemical. The note with it: hGYS1/GN1 50 nM, UDP-Glucose 0.8 mM, G6P 1 mM; geometric mean of at least 2 runs.

Each structure is given as a SMILES string. pIC50: −log10 of the molar value. A value given as a limit tells only on which side of the number the result lay.

Sequence of hGYS1 enzyme (recombinant hGYS1/GN1 protein) (P13807 whole entry): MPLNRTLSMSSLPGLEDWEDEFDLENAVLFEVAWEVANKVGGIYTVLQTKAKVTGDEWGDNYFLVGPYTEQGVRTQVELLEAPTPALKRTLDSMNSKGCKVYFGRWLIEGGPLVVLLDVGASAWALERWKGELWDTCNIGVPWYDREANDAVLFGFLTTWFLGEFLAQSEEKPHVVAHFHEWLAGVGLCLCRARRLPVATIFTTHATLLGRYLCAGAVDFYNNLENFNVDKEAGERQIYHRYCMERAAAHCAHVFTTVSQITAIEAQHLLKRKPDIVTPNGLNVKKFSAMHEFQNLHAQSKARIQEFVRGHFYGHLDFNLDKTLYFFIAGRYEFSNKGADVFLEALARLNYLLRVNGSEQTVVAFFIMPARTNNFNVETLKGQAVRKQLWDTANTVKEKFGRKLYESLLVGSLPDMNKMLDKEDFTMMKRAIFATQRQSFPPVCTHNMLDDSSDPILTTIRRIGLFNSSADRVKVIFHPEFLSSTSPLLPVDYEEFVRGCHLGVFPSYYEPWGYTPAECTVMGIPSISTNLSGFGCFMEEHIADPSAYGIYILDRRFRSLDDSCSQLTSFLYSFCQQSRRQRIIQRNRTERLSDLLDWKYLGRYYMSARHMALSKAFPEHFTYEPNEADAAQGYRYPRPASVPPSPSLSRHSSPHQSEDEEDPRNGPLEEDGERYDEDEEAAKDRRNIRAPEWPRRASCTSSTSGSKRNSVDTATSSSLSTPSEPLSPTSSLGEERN
Sequence of hGYS1 enzyme (recombinant hGYS1/GN1 protein) (P46976 whole entry partner): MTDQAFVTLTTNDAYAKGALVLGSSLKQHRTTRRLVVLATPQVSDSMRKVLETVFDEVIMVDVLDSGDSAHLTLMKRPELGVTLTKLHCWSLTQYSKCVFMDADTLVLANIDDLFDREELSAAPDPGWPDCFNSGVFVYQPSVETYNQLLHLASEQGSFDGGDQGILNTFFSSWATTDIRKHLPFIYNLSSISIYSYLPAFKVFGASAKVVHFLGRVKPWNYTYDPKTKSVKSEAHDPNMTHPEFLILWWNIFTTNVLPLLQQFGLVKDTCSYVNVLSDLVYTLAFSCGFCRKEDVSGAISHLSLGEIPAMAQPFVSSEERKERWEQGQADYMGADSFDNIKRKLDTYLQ
Sequence of hGYS2 enzyme (recombinant hGYS2/GN1 protein) (P54840 whole entry): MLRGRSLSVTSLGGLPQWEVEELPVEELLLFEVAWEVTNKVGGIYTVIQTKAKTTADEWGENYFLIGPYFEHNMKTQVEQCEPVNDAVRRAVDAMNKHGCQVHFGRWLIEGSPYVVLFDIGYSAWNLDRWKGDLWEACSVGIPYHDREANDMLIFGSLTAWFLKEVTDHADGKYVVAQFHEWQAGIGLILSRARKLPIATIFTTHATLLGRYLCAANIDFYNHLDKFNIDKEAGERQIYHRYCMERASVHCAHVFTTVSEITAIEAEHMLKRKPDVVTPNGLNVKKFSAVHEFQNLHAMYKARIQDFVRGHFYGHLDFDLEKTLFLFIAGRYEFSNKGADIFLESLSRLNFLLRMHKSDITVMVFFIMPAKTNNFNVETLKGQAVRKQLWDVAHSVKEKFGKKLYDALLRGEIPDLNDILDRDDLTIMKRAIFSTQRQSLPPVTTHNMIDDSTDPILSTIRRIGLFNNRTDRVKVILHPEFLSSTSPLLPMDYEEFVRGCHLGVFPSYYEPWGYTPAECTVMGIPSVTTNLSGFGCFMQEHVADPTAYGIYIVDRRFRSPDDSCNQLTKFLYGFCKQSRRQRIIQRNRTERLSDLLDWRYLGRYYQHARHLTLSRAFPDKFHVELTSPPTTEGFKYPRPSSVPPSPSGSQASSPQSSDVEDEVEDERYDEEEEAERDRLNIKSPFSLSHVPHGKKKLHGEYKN
Sequence of hGYS2 enzyme (recombinant hGYS2/GN1 protein) (P46976 whole entry partner): as the sequence (P46976 whole entry partner) above

Turning to `CC(C)c1ccc([C@@H](NC(=O)[C@@H]2C[C@@H](F)CN2C(=O)CN2CCCCC2=O)c2ccccc2)cc1` [Compound 85, (2S,4R)-4-fluoro-1-[2-(2-oxopiperidin-1-yl)acetyl]-N-[(S)-phenyl[4-(propan-2-yl)phenyl]methyl]pyrrolidine-2-carboxamide], the pIC50 in test [1] was < 4.00; in test [2] it was 6.81.

In the case of `CC(C)c1ccc([C@@H](NC(=O)[C@@H]2C[C@@H](F)CN2C(=O)Cc2c[nH]c3ccccc23)c2ccccc2)cc1` [Compound 86, (2S,4R)-4-fluoro-1-[2-(1H-indol-3-yl)acetyl]-N-[(S)-phenyl[4-(propan-2-yl)phenyl]methyl]pyrrolidine-2-carboxamide], the pIC50 in test [1] was < 4.00; in test [2], 7.92.

Take `CC(C)c1ccc([C@@H](NC(=O)[C@@H]2C[C@@H](F)CN2C(=O)Cc2noc(C(C)C)n2)c2ccccc2)cc1` [Compound 87, (2S,4R)-4-fluoro-N-[(S)-phenyl[4-(propan-2-yl)phenyl]methyl]-1-{2-[5-(propan-2-yl)-1,2,4-oxadiazol-3-yl]acetyl}pyrrolidine-2-carboxamide]: the pIC50 in test [1] was < 4.00; in test [2] it was 7.55.

With `COc1ccc(CC(=O)N2C[C@H](F)C[C@H]2C(=O)N[C@@H](c2ccccc2)c2ccc(C(C)C)cc2)cc1` [Compound 88, (2S,4R)-4-fluoro-1-[2-(4-methoxyphenyl)acetyl]-N-[(S)-phenyl[4-(propan-2-yl)phenyl]methyl]pyrrolidine-2-carboxamide], the pIC50 in test [1] is < 4.00; in test [2], 7.31.

In the case of `COc1ccc(CC(=O)N2C[C@H](F)C[C@H]2C(=O)N[C@@H](c2ccccc2)c2ccc(C(C)C)cc2)cc1F` [Compound 89, (2S,4R)-4-fluoro-1-[2-(3-fluoro-4-methoxyphenyl)acetyl]-N-[(S)-phenyl[4-(propan-2-yl)phenyl]methyl]pyrrolidine-2-carboxamide], the figures for the pIC50 in test [1] and in test [2] were < 4.00 and 7.22, respectively.

Turning to `COc1ccc(F)cc1CC(=O)N1C[C@H](F)C[C@H]1C(=O)N[C@@H](c1ccccc1)c1ccc(C(C)C)cc1` [Compound 90, (2S,4R)-4-fluoro-1-[2-(5-fluoro-2-methoxyphenyl)acetyl]-N-[(S)-phenyl[4-(propan-2-yl)phenyl]methyl]pyrrolidine-2-carboxamide], the pIC50 is < 4.00 in test [1] and 7.49 in test [2].

Turning to `Cc1ccccc1OCC(=O)N1C[C@H](F)C[C@H]1C(=O)N[C@@H](c1ccccc1)c1ccc(C(C)C)cc1` [Compound 91, (2S,4R)-4-fluoro-1-[2-(2-methylphenoxy)acetyl]-N-[(S)-phenyl[4-(propan-2-yl)phenyl]methyl]pyrrolidine-2-carboxamide], the pIC50 is < 4.00 in test [1] and 7.33 in test [2].

With `CC(C)c1ccc([C@@H](NC(=O)[C@@H]2C[C@@H](F)CN2C(=O)C2CCNC(=O)C2)c2ccccc2)cc1` (stereo partly drawn) [Compound 93, (2S,4R)-4-fluoro-1-(2-oxopiperidin-4-carbonyl)-N-[(S)-phenyl[4-(propan-2-yl)phenyl]methyl]pyrrolidine-2-carboxamide], the values for the pIC50 in test [1] and in test [2] were < 4.00 and 6.97, respectively.

In the case of `CC(C)c1ccc([C@@H](NC(=O)[C@@H]2C[C@@H](F)CN2C(=O)CCCc2cccnc2)c2ccccc2)cc1` [Compound 94, (2S,4R)-4-fluoro-N-[(S)-phenyl[4-(propan-2-yl)phenyl]methyl]-1-[4-(pyridin-3-yl)butanoyl]pyrrolidine-2-carboxamide], the values for the pIC50 in test [1] and in test [2] were < 4.00 and 6.73, respectively.

On to `CC(C)c1ccc([C@@H](NC(=O)[C@@H]2C[C@@H](F)CN2C(=O)CCCc2ccncc2)c2ccccc2)cc1` [Compound 95, (2S,4R)-4-fluoro-N-[(S)-phenyl[4-(propan-2-yl)phenyl]methyl]-1-[4-(pyridin-4-yl)butanoyl]pyrrolidine-2-carboxamide], for which the pIC50 was < 4.00 in test [1] and 6.89 in test [2].

As for `CC(C)c1ccc([C@@H](NC(=O)[C@@H]2C[C@@H](F)CN2C(=O)Cc2ccc3ncccc3c2)c2ccccc2)cc1` [Compound 96, (2S,4R)-4-fluoro-N-[(S)-phenyl[4-(propan-2-yl)phenyl]methyl]-1-[2-(quinolin-6-yl)acetyl]pyrrolidine-2-carboxamide], the pIC50 is < 4.00 in test [1] and 7.68 in test [2].

In the case of `CC(Cc1ccncc1)C(=O)N1C[C@H](F)C[C@H]1C(=O)N[C@@H](c1ccccc1)c1ccc(C(C)C)cc1` (stereo partly drawn) [Compound 98, (2S,4R)-4-fluoro-1-[2-methyl-3-(pyridin-4-yl)propanoyl]-N-[(S)-phenyl[4-(propan-2-yl)phenyl]methyl]pyrrolidine-2-carboxamide], the pIC50 in test [1] is < 4.00; in test [2], 6.61.

As to `Cc1cc(CCC(=O)N2C[C@H](F)C[C@H]2C(=O)N[C@@H](c2ccccc2)c2ccc(C(C)C)cc2)ccn1` [Compound 99, (2S,4R)-4-fluoro-1-[3-(2-methylpyridin-4-yl)propanoyl]-N-[(S)-phenyl[4-(propan-2-yl)phenyl]methyl]pyrrolidine-2-carboxamide], the values for the pIC50 in test [1] and in test [2] were < 4.00 and 7.19, respectively.

On to `Cc1ccc(CCC(=O)N2C[C@H](F)C[C@H]2C(=O)N[C@@H](c2ccccc2)c2ccc(C(C)C)cc2)cn1` [Compound 100, (2S,4R)-4-fluoro-1-[3-(6-methylpyridin-3-yl)propanoyl]-N-[(S)-phenyl[4-(propan-2-yl)phenyl]methyl]pyrrolidine-2-carboxamide], for which the figures for the pIC50 in test [1] and in test [2] were < 4.00 and 7.14, respectively.

Turning to `Cc1ccc(CCC(=O)N2C[C@H](F)C[C@H]2C(=O)N[C@@H](c2ccccc2)c2ccc(C(C)C)cc2)nc1` [Compound 101, (2S,4R)-4-fluoro-1-[3-(5-methylpyridin-2-yl)propanoyl]-N-[(S)-phenyl[4-(propan-2-yl)phenyl]methyl]pyrrolidine-2-carboxamide], the pIC50 is < 4.00 in test [1] and 7.27 in test [2].

Consider `Cc1ncccc1CCC(=O)N1C[C@H](F)C[C@H]1C(=O)N[C@@H](c1ccccc1)c1ccc(C(C)C)cc1` [Compound 102, (2S,4R)-4-fluoro-1-[3-(2-methylpyridin-3-yl)propanoyl]-N-[(S)-phenyl[4-(propan-2-yl)phenyl]methyl]pyrrolidine-2-carboxamide], for which the results for the pIC50 in test [1] and in test [2] were < 4.00 and 7.24, respectively.

For the compound `Cc1noc(C)c1CCC(=O)N1C[C@H](F)C[C@H]1C(=O)N[C@@H](c1ccccc1)c1ccc(C(C)C)cc1` [Compound 103, (2S,4R)-1-[3-(3,5-dimethyl-1,2-oxazol-4-yl)propanoyl]-4-fluoro-N-[(S)-phenyl[4-(propan-2-yl)phenyl]methyl]pyrrolidine-2-carboxamide], the pIC50 in test [1] was < 4.00; in test [2] it was 6.79.

With `CC(C)c1ccc([C@@H](NC(=O)[C@@H]2C[C@@H](F)CN2C(=O)CCc2c[nH]c3ncccc23)c2ccccc2)cc1` [Compound 104, (2S,4R)-4-fluoro-N-[(S)-phenyl[4-(propan-2-yl)phenyl]methyl]-1-(3-{1H-pyrrolo[2,3-b]pyridin-3-yl}propanoyl)pyrrolidine-2-carboxamide], the pIC50 in test [1] is < 4.00; in test [2], 7.21.

With `Cc1nccn1CCCC(=O)N1C[C@H](F)C[C@H]1C(=O)N[C@@H](c1ccccc1)c1ccc(C(C)C)cc1` [Compound 105, (2S,4R)-4-fluoro-1-[4-(2-methyl-1H-imidazol-1-yl)butanoyl]-N-[(S)-phenyl[4-(propan-2-yl)phenyl]methyl]pyrrolidine-2-carboxamide], the results for the pIC50 in test [1] and in test [2] were < 4.00 and 6.60, respectively.

With `Cc1cc(C)n(CCC(=O)N2C[C@H](F)C[C@H]2C(=O)N[C@@H](c2ccccc2)c2ccc(C(C)C)cc2)n1` [Compound 106, (2S,4R)-1-[3-(3,5-dimethyl-1H-pyrazol-1-yl)propanoyl]-4-fluoro-N-[(S)-phenyl[4-(propan-2-yl)phenyl]methyl]pyrrolidine-2-carboxamide], the pIC50 in test [1] is < 4.00; in test [2], 6.73.

Turning to `CC(=O)Nc1ccc(CC(=O)N2C[C@H](F)C[C@H]2C(=O)N[C@@H](c2ccccc2)c2ccc(C(C)C)cc2)cc1` [Compound 107, (2S,4R)-1-[2-(4-acetamidophenyl)acetyl]-4-fluoro-N-[(S)-phenyl[4-(propan-2-yl)phenyl]methyl]pyrrolidine-2-carboxamide], the pIC50 is < 4.00 in test [1] and 7.72 in test [2].

Take `CC(C)c1ccc([C@@H](NC(=O)[C@@H]2C[C@@H](F)CN2C(=O)CCC(=O)N2CCCC2)c2ccccc2)cc1` [Compound 108, (2S,4R)-4-fluoro-1-[4-oxo-4-(pyrrolidin-1-yl)butanoyl]-N-[(S)-phenyl[4-(propan-2-yl)phenyl]methyl]pyrrolidine-2-carboxamide]: the pIC50 in test [1] is < 4.00; in test [2], 7.11.

Turning to `CC(C)c1ccc([C@@H](NC(=O)[C@@H]2C[C@@H](F)CN2C(=O)CCc2c[nH]c3ccccc23)c2ccccc2)cc1` [Compound 109, (2S,4R)-4-fluoro-1-[3-(1H-indol-3-yl)propanoyl]-N-[(S)-phenyl[4-(propan-2-yl)phenyl]methyl]pyrrolidine-2-carboxamide], the values for the pIC50 in test [1] and in test [2] were < 4.00 and 7.39, respectively.

In the case of `Cc1ccc(CCC(=O)N2C[C@H](F)C[C@H]2C(=O)N[C@@H](c2ccccc2)c2ccc(C(C)C)cc2)c(C)n1` [Compound 110, (2S,4R)-1-[3-(2,6-dimethylpyridin-3-yl)propanoyl]-4-fluoro-N-[(S)-phenyl[4-(propan-2-yl)phenyl]methyl]pyrrolidine-2-carboxamide], the pIC50 in test [1] is < 4.00; in test [2] it was 7.48.

For the origin of these results see US11814367B2, “Inhibitors of glycogen synthase 1 (GYS1) and methods of use thereof” (Maze Therapeutics, Inc., priority 2021, dated 2023).
